Source: ChEMBL document CHEMBL1201862, “PubChem BioAssay data set” (2004)
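A five-concentration, 48-hour dose response in 96-well plates underlies each endpoint, interpolated linearly between surrounding concentrations. The concentration for 50% growth inhibition is given as GI50.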 Activity calls are given as the source filed them. Cut-off read from the data, not from the text of the source: active = GI50 up to about 1.1 µM and inactive = higher.

Tests used:
Test in all cases: NCI tumour cell line growth inhibition, 48 h
[1] = system: EKVX
[2] = system: SF-268
[3] = system: A549
[4] = system: SF-295
[5] = system: NCI-H460
[6] = system: CCRF-CEM
[7] = system: RPMI-8226
[8] = system: A498
[9] = system: HL-60
[10] = system: HOP-62
[11] = system: KM-20L2
[12] = system: SK-MEL-5
[13] = system: M14
[14] = system: RXF 393
[15] = system: SK-MEL-28
[16] = system: MDA-MB-231
[17] = system: T47D
[18] = system: MDA-N
[19] = system: BT-549
[20] = system: PC-3

Compound	GI50 [1]	GI50 [2]	GI50 [3]	GI50 [4]	GI50 [5]	GI50 [6]	GI50 [7]	GI50 [8]	GI50 [9]	GI50 [10]	GI50 [11]	GI50 [12]	GI50 [13]	GI50 [14]	GI50 [15]	GI50 [16]	GI50 [17]	GI50 [18]	GI50 [19]	GI50 [20]
COC1C=CC23c4cc5c(cc4C(O)OC2CN(C)C3C1)OCO5 (stereo not drawn)	3.55 µM (inactive)	3.37 µM (inactive)	2.4 µM (inactive)	1.69 µM (inactive)	2.69 µM (inactive)	1.84 µM (inactive)	2.56 µM (inactive)	3.1 µM (inactive)	1.08 µM (active)	2.54 µM (inactive)	1.29 µM (inactive)	0.434 µM (active)	0.746 µM (active)							
CCOc1cc[n+]([C-](C#N)C#N)cc1	> 100 µM (inactive)	> 100 µM (inactive)	> 100 µM (inactive)	> 100 µM (inactive)	> 100 µM (inactive)	> 100 µM (inactive)	> 100 µM (inactive)	> 100 µM (inactive)	> 100 µM (inactive)	> 100 µM (inactive)	> 100 µM (inactive)	> 100 µM (inactive)	> 100 µM (inactive)	> 100 µM (inactive)						
COc1ccc(C2=NN(C(=O)COc3ccc(Cl)cc3)C(O)(c3ccc(Cl)cc3)C2)cc1 (stereo not drawn)		> 100 µM (inactive)	> 100 µM (inactive)	> 100 µM (inactive)	> 100 µM (inactive)		> 100 µM (inactive)		> 100 µM (inactive)	> 100 µM (inactive)	> 100 µM (inactive)		> 100 µM (inactive)		> 100 µM (inactive)					
CCCCc1c2c(nc3c1CCc1cc4cc5c(nc4nc1-3)-c1nc3c(c(CCCC)c1CC5)CCCC3)CCCC2	12.5 µM (inactive)	39.3 µM (inactive)	20.5 µM (inactive)	15.7 µM (inactive)	47.1 µM (inactive)	31.7 µM (inactive)	27 µM (inactive)		42.1 µM (inactive)	37.9 µM (inactive)	22.8 µM (inactive)		53.1 µM (inactive)	6.56 µM (inactive)	69.5 µM (inactive)					
CC(C)[Si](OC1=C(C(=O)Nc2ccccc2Cl)CCCCC1)(C(C)C)C(C)C	> 100 µM (inactive)	> 100 µM (inactive)	> 100 µM (inactive)	> 100 µM (inactive)	> 100 µM (inactive)	0.462 µM (active)	> 100 µM (inactive)	> 100 µM (inactive)	1.97 µM (inactive)	> 100 µM (inactive)		> 100 µM (inactive)	> 100 µM (inactive)	> 100 µM (inactive)	> 100 µM (inactive)	> 100 µM (inactive)	> 100 µM (inactive)	> 100 µM (inactive)	> 100 µM (inactive)	> 100 µM (inactive)
COc1ccc(/C=N/Nc2nc(-c3cc4oc(=O)n(C)c4cc3Cl)cs2)cc1OC	9.51 µM (inactive)	35.3 µM (inactive)	4.35 µM (inactive)	9.23 µM (inactive)	20.7 µM (inactive)	91 µM (inactive)	8.26 µM (inactive)		15.7 µM (inactive)	36.2 µM (inactive)	15.7 µM (inactive)	2.36 µM (inactive)	78.5 µM (inactive)	15.4 µM (inactive)	> 100 µM (inactive)					
CC(C)(C)C(=O)CC(=O)C(C)(C)C.CC(C)(C)C(=O)CC(=O)C(C)(C)C.[SiH4]	< 0.01 µM (active)	1.76 µM (inactive)	2.95 µM (inactive)	1.01 µM (active)		1.79 µM (inactive)	0.299 µM (active)	2.81 µM (inactive)		2.33 µM (inactive)	1.62 µM (inactive)	2.1 µM (inactive)	2.18 µM (inactive)		3.15 µM (inactive)					
COc1ccc(-c2cc(=O)c3c(OC)cccc3o2)c(OC)c1OC		> 100 µM (inactive)	> 100 µM (inactive)	> 100 µM (inactive)	> 100 µM (inactive)	> 100 µM (inactive)	80.5 µM (inactive)	> 100 µM (inactive)	63.1 µM (inactive)	> 100 µM (inactive)	> 100 µM (inactive)	87.7 µM (inactive)	> 100 µM (inactive)	39 µM (inactive)	> 100 µM (inactive)					
CC1(C)O[C@@H]2C[C@H]3[C@@H]4C[C@H](F)C5=CC(=O)C=C[C@]5(C)[C@@]4(F)[C@@H](O)C[C@]3(C)[C@]2(C(=O)CO)O1 [FLUOCINOLONE ACETONIDE]	> 100 µM (inactive)	> 100 µM (inactive)	> 100 µM (inactive)	> 100 µM (inactive)	> 100 µM (inactive)	< 0.01 µM (active)	< 0.01 µM (active)	> 100 µM (inactive)	> 100 µM (inactive)	> 100 µM (inactive)		> 100 µM (inactive)	> 100 µM (inactive)	> 100 µM (inactive)	> 100 µM (inactive)	> 100 µM (inactive)	> 100 µM (inactive)	> 100 µM (inactive)	> 100 µM (inactive)	> 72.6 µM (inactive)
